Read-outs that look alike come from different tables or passages of the source.
How the values were obtained:
[1] = tested on: Caco-2 cells; assay: In vitro cytotoxicity study; format: cell-based, human; details: clemastine 0.01-10 µM, 24 hr incubation
[2] = tested on: P-gp; details: MDR-MDCK cells; cited from earlier work
[3] = cited from earlier work
[4] = cited from earlier work; remark: listed apart in the source
[5] = tested on: P-gp; details: cited from earlier work
[6] = tested on: P-gp; assay: In situ single pass intestinal perfusion; details: for increase of digoxin Peff: in situ SPIP

Peff of digoxin alone (control) ([6]; 20 µM digoxin, rat jejunum SPIP) | SMILES | cytotoxic effect on Caco-2 cells (cell viability, MTT) [1] | P-gp substrate status from efflux in presence of cyclosporine-A [2] | elimination half-life [3] | therapeutic level in blood plasma [3] | therapeutic level in blood plasma ([3]; converted from ng/ml) | solubility in water [4] | P-gp substrate classification [5] | increase of digoxin Peff ([6]; 0.5 µM clemastine) | increase of digoxin Peff ([6]; 10 µM clemastine)
 | CN1CCC[C@@H]1CCO[C@](C)(c1ccccc1)c1ccc(Cl)cc1 [clemastine] | no cytotoxic effect | clemastine is a P-gp substrate | approximately 21 hr | 0.7 to 2 ng/mL | 1.5 to 4.4 nM | very slightly soluble in water | non-P-gp-substrate | about 65% | ~165%
3.4±0.8 ×10^-5cm/s | C[C@H]1O[C@@H](O[C@H]2[C@@H](O)C[C@H](O[C@H]3[C@@H](O)C[C@H](O[C@H]4CC[C@@]5(C)[C@H](CC[C@@H]6[C@@H]5C[C@@H](O)[C@]5(C)[C@@H](C7=CC(=O)OC7)CC[C@]65O)C4)O[C@@H]3C)O[C@@H]2C)C[C@H](O)[C@@H]1O [digoxin] |  |  |  |  |  |  |  |  | 
